Earlier results on one sequence are cited in patent US20170157228A1, “Immunogenic Polypeptide Composed of HLA-B7 Restricted Tumor Antigen-Derived Optimized Cryptic Peptides, and Uses Thereof” (VAXON BIOTECH, priority 2014, published 2017).

In this data set the test system is MAGE-A antigens / tumour cells. The following applies: recognition of cells loaded with MAGE-A273A6, MAGE-A273I6, MAGE-A273V6; cited from earlier work.

On to GPRALVETL (7M1M), for which the “MAGE-A antigens targeted by elicited CTLs” value was “targeted six MAGE-A antigens (-A1, -A2, -A3, -A4, -A6, and -A12)”.
